From US20230133132A1, “NAMPT MODULATORS” (Cytokinetics, Inc., priority 2020, published 2023)

Tests used:
human NAMPT = human NAMPT (Homo sapiens, UniProt P43490); assay: Human recombinant enzyme assay (NMN fluorescence biochemical assay)
Protocol: Compounds described herein were assayed for their ability to stimulate the synthesis of nicotinamide mononucleotide (NMN) by the enzyme NAMPT. The human recombinant enzyme assay measures the activation of the enzyme activity by compounds using recombinant enzyme and substrates in a buffered cell-free system. The assay conditions closely mimic cellular environments. Dose responses were measured using an assay to detect the formation of nicotinamide mono-nucleotide. All experiments were performed in the 384-well format. Generally, 0.5 μL of DMSO containing varying concentrations of the test compound was mixed with 10 μL of the enzyme reagent solution. Enzyme reactions were initiated with the addition of 10 μL of a solution containing the substrates. The final assay conditions were as follows: 6 nM human NAMPT, 2.5 mM ATP, 20 μM PRPP and 150 μM nicotinamide in 50 mM HEPES, pH 7.2, 1 mM DTT, 1 mM CHAPS 50 mM NaCl, 100 mM MgCl2. Following an incubation of 60 min at ambient temperature, 10 μL of 20% acetophenone in DMSO was added, followed by 10 μL of 2 M KOH and 40 μL of formic acid. The plates were read for fluorescence (Excitation/Emission=355 nm/460 nm) using an EnVision plate reader after 40 mins of incubation at ambient temperature.

endogenous NAMPT = target: T1, endogenous NAMPT (Homo sapiens, UniProt P43490); assay: Cellular NAD+ modulation assay in SH-SY5Y cells; assay type: cell-based; settings: 40 hours
T1 construct: stimulate the endogenous NAMPT in a native cellular environment; endogenous in cells; host or cells: SH-SY5Y neuroblastoma cells
T1 sequence (P43490 whole entry): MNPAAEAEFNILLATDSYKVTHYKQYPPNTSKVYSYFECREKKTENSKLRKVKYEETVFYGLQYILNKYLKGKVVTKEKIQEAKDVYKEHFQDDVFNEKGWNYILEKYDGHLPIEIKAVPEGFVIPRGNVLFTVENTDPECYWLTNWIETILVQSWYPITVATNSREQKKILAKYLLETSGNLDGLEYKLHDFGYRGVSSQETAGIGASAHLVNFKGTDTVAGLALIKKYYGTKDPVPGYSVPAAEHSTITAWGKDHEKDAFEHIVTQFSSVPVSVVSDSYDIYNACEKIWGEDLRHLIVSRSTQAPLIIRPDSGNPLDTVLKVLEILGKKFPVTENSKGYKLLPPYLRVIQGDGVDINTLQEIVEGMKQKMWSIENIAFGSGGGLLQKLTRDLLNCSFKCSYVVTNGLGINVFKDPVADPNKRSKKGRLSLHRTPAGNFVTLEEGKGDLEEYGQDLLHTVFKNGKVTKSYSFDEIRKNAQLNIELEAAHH
Protocol: The compounds described herein were also assayed for their ability to stimulate the endogenous NAMPT in a native cellular environment in the cellular NAD+ modulation assay, which measures the ability of the compound to modulate cellular NAD levels. Increased levels of NAD are expected by compounds that permeate the cells and activate the catalytic activity of the endogenous NAMPT.
Neuroblastoma SH-SY5Y cells were grown in 1:1 mixture of Eagle's Minimum Essential Medium and F12 Medium, along with 10% fetal bovine serum, in a humidified incubator with an atmosphere of 95% air and 5% C02 at 37° C. The assays were initiated by plating 20 μL of SH-SY5Y cells in culture medium with 0.1% fetal bovine serum, at a density of 5000 cells per well to a 384-well Corning™ BioCoat™ Poly-D-Lysine Multiwell Plates. The plates were incubated in the 37° C. incubators for a period of 5 hours. Compounds in DMSO were added to the plates in a volume of 120 nL using the Labcyte Echo Liquid Handlers. 5 μL of a 1.5 uM Doxorubicin solution in assay medium is added to each well. The plates are then incubated for 40 hours. 30 μL of a readout-solution containing 0.2 U/mL Diaphorase enzyme, 40 uM resazurin, 10 uM FMN, 0.8 U/mL Alcohol dehydrogenase, 3% ethanol, 0.4 mg/mL bovine serum albumin, 0.2% Triton X-100 in 100 mM Tris-HCl, 30 mM EDTA, pH 8.4. The plates were read for fluorescence (Excitation/Emission=540 nm/590 nm) using an EnVision plate reader after 60 mins of incubation at ambient temperature.

[1] = 6 nM human NAMPT, 60 min, NMN formation by fluorescence
[2] = recombinant human NAMPT, NMN fluorescence, 60 min
[3] = doxorubicin added, cellular NAD readout

Chain of human NAMPT (P43490 whole entry): as above

Row | SMILES | AC1.4 (the concentration of compounds that generates 40% higher activity over basal) (human NAMPT; [1]) [µM] | EC50 (human NAMPT; [2]) [µM] | AC0.3 (endogenous NAMPT; [3]) [µM] | EC50 (endogenous NAMPT; doxorubicin) [µM] | also measured
1 | CC(C)(O)CN1CCN(Cc2ccc(NC(=O)NCc3ccncc3)cc2)CC1 [Comparator B, reference compound] |  | 19.7 |  | > 20.1 | 
2 | COc1ccc(CNC(=O)Nc2ccc(CN3CCN(CC(C)(C)O)CC3)cc2)cc1 [Compound 242, 1-(4-((4-(2-hydroxy-2-methylpropyl)piperazin-1-yl)methyl)phenyl)-3-(4-methoxybenzyl)urea] | 0.42 | 10.6 | 0.86 | 0.79 | 
3 | C[C@H](NCc1ccccc1)c1ccc(NC(=O)NCc2ccc(Cl)cc2)cc1 [Compound 40, [(4-{(1S)-1-[benzylamino]ethyl}phenyl)amino]-N-[(4-chlorophenyl)methyl]carboxamide] |  |  |  |  | AC1.4 Human (human NAMPT; recombinant human NAMPT, NMN fluorescence, 60 min, class symbols): A (AC1.4 values that are less than 0.5 μM); AC0.3 (endogenous NAMPT; doxorubicin, class symbols): C (AC0.3 values that are greater than 2.5 μM)
4 | CC(C)(O)CN1CCN(Cc2ccc(NC(=O)NCc3cnco3)cc2)CC1 [Comparator D, reference compound] |  | 36.5 |  | > 20.1 | 
5 | CC(C)(O)CN1CCN(Cc2ccc(NC(=O)NCc3cn[nH]c3)cc2)CC1 [Comparator C, reference compound] |  | 35.1 |  | > 20.1 | 

More lines, in order of falling EC50 (human NAMPT; [2]), values ahead:

Row | AC1.4 (the concentration of compounds that generates 40% higher activity over basal) (human NAMPT; [1]) [µM] | EC50 (human NAMPT; [2]) [µM] | AC0.3 (endogenous NAMPT; [3]) [µM] | EC50 (endogenous NAMPT; doxorubicin) [µM] | SMILES | also measured
6 |  | 10.6 |  | 2.3 | CC(C)(O)CN1CCN(Cc2ccc(NC(=O)NCc3ccccc3)cc2)CC1 [Comparator A, reference compound] | potency relative to compounds with a halo or methoxy substituent at the R^1 position, as measured by AC1.4 (human NAMPT; comparison of AC1.4 values): five to ten times less potent
7 | 0.78 | 7.5 | 1.2 | 1.4 | CC(C)(O)CN1CCN(Cc2ccc(NC(=O)NCc3ccc(F)cc3)cc2)CC1 [Compound 167, {[(4-fluorophenyl)methyl]amino}-N-(4-{[4-(2-hydroxy-2-methylpropyl)piperazinyl]methyl}phenyl)carboxamide] | AC1.4 designation (human NAMPT; [1]): B (AC1.4 values that are between 0.5 μM and 2.5 μM)
8 | 0.15 | 3.1 | 0.15 | 0.16 | CC(C)(O)CN1CCN(Cc2ccc(NC(=O)NCc3ccc(Cl)cc3)cc2)CC1 [Compound 36, {[(4-chlorophenyl)methyl]amino}-N-(4-{[4-(2-hydroxy-2-methylpropyl)piperazinyl]methyl}phenyl)carboxamide] | AC0.3 designation (endogenous NAMPT; [3]): A (AC0.3 values that are less than 0.5 μM)
